Data reported in patent US10052340B2 (XIAMEN UNIVERSITY, priority 2012, dated 2018).

Assays:
FXR A291W = target: T1, FXR A291W (Homo sapiens, UniProt Q96RI1, A305W); assay: Reporter gene analysis with FXR point mutant A291W in COS-7 cells; format: cell-based; conditions: COS-7, EcRE reporter, FIG. 5
T1 construct: the expression plasmid expressing full-length FXR (wt) or with mutations at the corresponding sites; expressed in transfected cells; host or cells: COS-7
T1 sequence (Q96RI1 1-472 isoform Q96RI1-2 A291W): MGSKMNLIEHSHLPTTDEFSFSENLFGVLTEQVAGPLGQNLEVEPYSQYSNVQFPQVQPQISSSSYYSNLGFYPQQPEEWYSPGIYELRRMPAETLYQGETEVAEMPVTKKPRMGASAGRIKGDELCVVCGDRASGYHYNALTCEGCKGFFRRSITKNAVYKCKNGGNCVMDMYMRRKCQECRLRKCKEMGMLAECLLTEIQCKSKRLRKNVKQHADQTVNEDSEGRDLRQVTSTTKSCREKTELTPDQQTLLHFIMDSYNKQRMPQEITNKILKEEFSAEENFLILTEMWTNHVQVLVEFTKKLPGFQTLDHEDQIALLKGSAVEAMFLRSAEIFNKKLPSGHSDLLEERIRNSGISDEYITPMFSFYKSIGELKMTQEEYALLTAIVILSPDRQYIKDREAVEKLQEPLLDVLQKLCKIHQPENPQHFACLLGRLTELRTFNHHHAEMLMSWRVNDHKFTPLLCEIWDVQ
Protocol: (§1) (2) The expression vector of FXR with point mutations at key binding sites is obtained. Quick-Change site-directed mutagenesis kit (Stratagene) is used for mutation, and the mutation reaction system is as follows: wild-type plasmid pCMX-FXR (50 ng) of 0.5 μl, mutation primer (100 μM) of 0.2 μl, pfu DNA polymerase (Invitrogen) (2 U) of 1 μl, 10 mM dNTPs of 1 μl, 10× PCR buffer of 5 μl, and ddH2O of 43 μl. PCR procedures are performed as follows: 94° C. for 2 min; 94° C. for 30 s, 55° C. for 1 min, 72° C. for 7 min, 15 cycles. 20 μl PCR product is digested with Dpn I […], followed by taking and transforming 2 μl digestion product into E. coli Trans 109 competent cells, ice bath for 30 min, and heat shock at 42° C. for 30 s. 250 μl of LB liquid medium without antibiotics is added, and preshaken at 225 rpm at 37° C. for 40 min, followed by taking 150 μl of products, spreading same on LB solid medium plates with ampicillin at 100 μg/ml and culturing them at 37° C. overnight. On the next day, the single colony is picked out and placed in 2 ml LB liquid medium containing ampicillin at 100 μg/ml, and cultured at 37° C. overnight. Plasmid extraction is performed on the shaken bacterial solution using Qiagen MiniPrep Plasmid Minipreparation Kit. The plasmid is identified by sequencing.

FXR F284H = target: T2, FXR F284H (Homo sapiens, UniProt Q96RI1, F298H); assay: Reporter gene analysis with FXR point mutant F284H in COS-7 cells; format: cell-based; conditions: COS-7, EcRE reporter, FIG. 5
T2 construct: the expression plasmid expressing full-length FXR (wt) or with mutations at the corresponding sites; expressed in transfected cells; host or cells: COS-7
T2 sequence (Q96RI1 1-472 isoform Q96RI1-2 F284H): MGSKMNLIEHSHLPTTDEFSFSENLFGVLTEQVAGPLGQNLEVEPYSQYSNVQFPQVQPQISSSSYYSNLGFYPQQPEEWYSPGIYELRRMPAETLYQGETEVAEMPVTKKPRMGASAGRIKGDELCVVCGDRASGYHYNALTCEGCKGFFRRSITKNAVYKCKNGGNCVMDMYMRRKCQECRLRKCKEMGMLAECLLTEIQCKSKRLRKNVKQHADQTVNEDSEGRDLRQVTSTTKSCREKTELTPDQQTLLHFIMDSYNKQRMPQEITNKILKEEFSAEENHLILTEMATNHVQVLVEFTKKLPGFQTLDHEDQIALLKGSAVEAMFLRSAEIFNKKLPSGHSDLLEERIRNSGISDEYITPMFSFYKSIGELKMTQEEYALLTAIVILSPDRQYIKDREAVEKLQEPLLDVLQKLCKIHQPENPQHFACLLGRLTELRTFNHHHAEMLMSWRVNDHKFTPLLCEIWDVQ
Protocol: as §1

[1] = tested on: FXR gene deletion homozygous mice (FXR−/−); assay: Mouse trial, FXR knockout mice fed with high-fat diet; format: in vivo; conditions: 1.3 mg/kg i.p. daily, 14 days
Protocol: Wild-type C57BL/6J mice of 9-10 weeks old, and FXR gene deletion homozygous mice (FXR^−/−) and diabetes and obesity mouse model mice (KK-Ay) with the same background are used, fed with high-fat diet (Research Diets, D12492), with free access to water, in SPF grade animal room in experimental animal center, Xiamen University. […] Intraperitoneal injection is performed one time at 9 o'clock every morning, continued for 14 days, and the mice are measured for body weight and the food intake every two days. At the end of 14 days, the mice are provided with free access to water, and after being hungry for 6 h, the mouse body weights are measured, and the percentage of the final body weight relative to the initial body weight before the treatment of the injection trial indicates the change of mouse body weight. Then blood is sampled from the eye balls, and sera are obtained by separation. The components in serum are detected by the following kits respectively: sugar-oxidase method (Beijing Applygen); insulin (Crystal Chem. Inc., USA); total cholesterol and cholesterol in high and low density lipoprotein (Bioassay Systems, USA); triglyceride (Beijing Applygen and WAKO Chemicals Inc., Japan); free fatty acids (Bioassay Systems, USA); and aspartate aminotransferase and alanine aminotransferase (Biosino Bio-technology and Science Inc., Beijing, China). Mouse liver is taken, a part of which is fixed with paraformaldehyde, and embedded with paraffin, sectioned, and stained with hematoxylin and eosin, and a part of which is cryopreserved with liquid nitrogen for use in extracting RNA for measuring gene expression with fluorescence quantitative PCR.

KK-Ay mice = assay: Mouse trial, KK-Ay diabetes and obesity model mice fed with high-fat diet; format: in vivo
Source text: In order to detect the efficacy of abamectin/avermectin, ivermectin and the derivative doramectin in the body of a diabetes and obesity mouse model, we choose diabetes and obesity mouse model mice, KK-Ay mice, as the experimental subject.

[2] = tested on: FXR targeting genes and genes associated with the saccharide, triglyceride and cholesterol metabolism; assay: Fluorescence quantitative PCR of liver gene expression in treated wild-type mice; format: in vivo; conditions: wild-type mouse liver, real-time PCR, FIG. 13
Protocol: Total RNA is extracted from the tissues using an RNA extraction kit (Omega Bio-Tek, GA). TAKARA reverse transcription kit is used for the reverse transcription, and fluorescence quantitative PCR is performed with CFX™ 96 (BIO-RAD) real-time monitoring system using SYBR green fluorescent dye so as to analyze the gene expression level. The expression level of Actin gene is used as the internal reference for the results. The reaction system comprises SYBR Premix Ex Taq (2×) of 12.5 μl, PCR forward primer (10 μM) of 1 μl, PCR reverse primer (10 μM) of 1 μl, cDNA template of 2 μl, and sterilized distilled water of 8.5 μl, 25 μl in total. The two-step amplification PCR procedures are as follows: pre-denaturation at 95° C. for 30 s, PCR reaction at 95° C. for 5 s, and 60° C. for 40 s. 40 cycles.
The expression of genes associated with saccharides, lipids, and cholesterol metabolism in mouse liver treated with ligand medicaments is detected by fluorescent quantitative real-time PCR.

[3] = tested on: wild-type mouse liver cells; assay: LPS induced inflammatory gene expression in wild-type mouse liver cells; format: cell-based; conditions: FIG. 19
Source text: (§2) Ivermectin and LPS are used to treat wild-type and FXR knockout mouse liver cells.

[4] = tested on: FXR knockout mouse liver cells; assay: LPS induced inflammatory gene expression in FXR knockout mouse liver cells; format: cell-based
Source text: as §2

[5] = i.p. daily 14 days, ivermectin/derivatives 1.3 mg/kg, GW4064 30 mg/kg

CC[C@H](C)[C@H]1O[C@]2(CC[C@@H]1C)C[C@@H]1C[C@@H](C/C=C(\C)C(O[C@H]3C[C@H](OC)C(O[C@H]4C[C@H](OC)[C@@H](O)[C@H](C)O4)[C@H](C)O3)[C@@H](C)/C=C/C=C3\CO[C@@H]4[C@H](O)C(C)=CC(C(=O)O1)[C@]34O)O2 (stereo partly drawn) [ivermectin]
transcriptional activity of FXR mutant A291W (FXR A291W): incapable of activating the transcriptional activity of FXR
transcriptional activity of FXR mutant F284H (FXR F284H): incapable of activating the transcriptional activity of FXR
serum cholesterol level [1]: not producing any significant change
serum glucose level [1]: not producing any significant change
serum insulin level [1]: does not produce any significant change
cholesterol in high density lipoprotein ([1]; FIG. 8): not affected
cholesterol in low density/very low density lipoprotein ([1]; FIG. 8): not affected
serum insulin level (KK-Ay mice; 1.3 mg/kg i.p. daily, 14 days): significantly decreases
serum saccharides (glucose) level (KK-Ay mice; 1.3 mg/kg i.p. daily, 14 days): significantly decreases
serum free fatty acids (KK-Ay mice; i.p. daily 14 days, ivermectin 1.3 mg/kg, GW4064 30 mg/kg): significantly decrease
serum cholesterol (KK-Ay mice; [5]): significantly decrease
serum triglycerides (KK-Ay mice; [5]): significantly decrease
expression of genes associated with saccharides, lipids and cholesterol metabolism in liver [2]: can regulate the expression of genes associated with metabolism
expression of IL-6 induced by LPS [3]: clearly inhibit
expression of MIP-1a induced by LPS [3]: clearly inhibit
expression of TNFa induced by LPS [3]: clearly inhibit
expression of iNOS induced by LPS [3]: clearly inhibit
expression of inflammatory factors induced by LPS [4]: no clear change
